# From US20260124170A1, “PHARMACEUTICAL COMPOSITION COMPRISING METABOLITE OF ENAVOGLIFLOZIN, AND USE THEREOF” (DAEWOONG PHARMACEUTICAL CO., LTD., priority 2022, published 2026)
# Entries after “also recorded” stand apart in the source; their conditions may differ.
# Columns and labels:
# [1] = system: STZ-induced type 1 diabetic rats; experiment: Oral glucose tolerance test in type 1 diabetic rat model; assay type: in vivo; settings: for Blood glucose level in OGTT: glucose 2 g/kg oral
# Procedure: (§1) STZ was administered to Sprague Dawley (SD) male 5-week-old rats on day 0 (G2 to G7, excluding G1), and non-fasting blood glucose levels were measured on day 3 to determine whether type 1 diabetes was induced. On day 7, the experimental substances were administered to each group, and blood and urine samples were collected at 6 h, 24 h, 48 h, and 72 h to measure non-fasting blood glucose levels. On day 14 of the experiment, the experimental animals were fasted for 16 h, and on day 15, 2 g/kg of glucose solution was orally administered after the experimental substances were administered. Thereafter, blood glucose levels were measured at 15, 30, 60, 90, and 120 minutes after glucose administration. After blood collection, the serum was separated, and the IL-6 inflammatory response was evaluated using an interleukin-6 (IL-6) enzyme-linked immunosorbent assay (ELISA) kit.
# interleukin-6 (IL-6) = experiment: Serum IL-6 ELISA in type 1 diabetic rat model; assay type: in vivo; settings: STZ rats, 6, 24, 48, 72 hours after administration
# Procedure: as §1
# SGLT2 = biological target: T1, SGLT2 (Homo sapiens, UniProt P31639); experiment: Applicant's preliminary study of SGLT2 inhibition, intracellular retention and activity recovery; assay type: cell-based
# T1 construct: expressed in transfected cells
# T1 sequence (P31639 1-672): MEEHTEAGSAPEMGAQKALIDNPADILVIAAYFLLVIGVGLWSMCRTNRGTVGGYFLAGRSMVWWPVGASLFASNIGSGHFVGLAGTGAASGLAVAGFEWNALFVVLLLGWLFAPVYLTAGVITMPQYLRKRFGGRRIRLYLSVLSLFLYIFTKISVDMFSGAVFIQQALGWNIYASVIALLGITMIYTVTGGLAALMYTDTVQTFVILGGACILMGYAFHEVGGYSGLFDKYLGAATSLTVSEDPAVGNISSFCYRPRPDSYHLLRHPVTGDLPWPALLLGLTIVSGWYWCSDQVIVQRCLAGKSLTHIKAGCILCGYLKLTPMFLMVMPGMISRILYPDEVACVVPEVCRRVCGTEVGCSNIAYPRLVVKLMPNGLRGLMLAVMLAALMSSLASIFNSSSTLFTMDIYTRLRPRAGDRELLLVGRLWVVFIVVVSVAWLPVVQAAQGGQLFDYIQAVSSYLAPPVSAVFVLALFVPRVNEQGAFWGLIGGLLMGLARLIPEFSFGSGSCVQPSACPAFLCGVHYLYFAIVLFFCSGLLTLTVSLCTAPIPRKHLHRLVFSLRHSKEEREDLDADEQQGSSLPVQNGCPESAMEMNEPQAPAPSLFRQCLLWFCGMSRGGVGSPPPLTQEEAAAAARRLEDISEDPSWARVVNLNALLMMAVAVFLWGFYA
# normal rats = experiment: Urinary glucose excretion (UGE) after intravenous administration; assay type: in vivo, rat; settings: 1 mg/kg intravenous, 6-72 hours
# Procedure: Enavogliflozin, M1, or M2 was intravenously administered once to normal rats, and antidiabetic efficacy was evaluated.
# To perform the oral glucose tolerance test (OGTT) and examine urinary glucose excretion (UGE), enavogliflozin, M1, or M2 was administered intravenously to male 8-week-old normal rats at a dose of 1 mg/kg, and then a glucose solution (2 g/kg) was administered to load blood sugar. The blood sugar level was measured before glucose solution administration and at 5, 10, 15, 20, 30, 40, 60, 90, and 120 minutes after the administration to evaluate oral glucose tolerance. In addition, the UGE was evaluated by measuring the amount of glucose excreted in the urine 6, 24, 48, and 72 hours after the administration of the glucose solution.
# [2] = system: STZ-induced type 1 diabetic rats; experiment: Non-fasting blood glucose in type 1 diabetic rat model; assay type: in vivo; settings: 1 mg/kg single intravenous dose
# Procedure: as §1
# [3] = Half-life of M2 (rapid dissipation); settings: in vivo
Compound,"Blood glucose level in OGTT ([1]; STZ rats, 1 mg/kg)",Change in IL-6 level (interleukin-6 (IL-6)),"Amount of drug remaining in the cells (SGLT2; after culturing for 24 hours, compared to dapagliflozin and ipragliflozin)",Inhibition mechanism of SGLT2 (Dixon plot and Replot) (SGLT2; preliminary study),"Change in inhibition after pretreatment (SGLT2; pretreatment for up to two hours, preliminary study)",Urinary glucose excretion (UGE) (normal rats),Non-fasting blood sugar level [2],"AUC of blood glucose in OGTT ([1]; STZ rats, 1 mg/kg)","Dose dependence of glucose tolerance in OGTT ([1]; STZ rats, 0.01, 0.1, 1 mg/kg)",half-life [3]
"OC[C@H]1O[C@@H](c2cc(Cc3ccc(C4CC4)cc3)c(Cl)c3c2CCO3)[C@H](O)[C@@H](O)[C@@H]1O [Enavogliflozin, (2S,3R,4R,5S,6R)-2-(7-chloro-6 (4-cyclopropylbenzyl)-2,3-dihydrobenzofuran-4-yl)-6-(hydroxymethyl)tetrahydro-2H-pyran-3,4,5-triol]",lowering of the blood glucose level was observed,slight decrease,significantly higher,reversible competitive inhibition mechanism,no change in inhibition,–,–,–,–,–
"OC[C@H]1O[C@@H](c2cc(Cc3ccc(C4CC4)cc3)c(Cl)c3c2CC(O)O3)[C@H](O)[C@@H](O)[C@@H]1O (stereo partly drawn) [M1, (2S,3R,4R,5S,6R)-2-(7-chloro-6-(4-cyclopropylbenzyl)-2-hydroxy-2,3-dihydrobenzofuran-4-yl)-6-(hydroxymethyl)tetrahydro-2H-pyran-3,4,5-triol]",fastest and strongest blood glucose lowering effect,significant decrease in all dose groups,–,–,–,UGE was observed from six hours after intravenous administration; also recorded: similar,lowest blood sugar level at 48 hours after administration,best oral glucose tolerance improvement effect,dose-dependent improvement in glucose tolerance,–
"OC[C@H]1O[C@@H](c2cc(Cc3ccc(C4(O)CC4)cc3)c(Cl)c3c2CCO3)[C@H](O)[C@@H](O)[C@@H]1O [M2, (2S,3R,4R,5S,6R)-2-(7-chloro-6-(4-(1-hydroxycyclopropyl)benzyl)-2,3-dihydrobenzofuran-4-yl)-6-(hydroxymethyl)tetrahydro-2H-pyran-3,4,5-triol]",–,–,–,–,–,UGE was observed from six hours after intravenous administration; also recorded: less glucose was excreted than enavogliflozin and M1 for up to 24 hours,–,–,–,48 min
